The text below walks through data of US20160340704A1, “METHOD OF MAKING A BENZYLISOQUINOLINE ALKALOID (BIA) METABOLITE, ENZYMES THEREFORE” (VALORBEC SOCIÉTÉ EN COMMANDITE, priority 2014, published 2016).

Holding throughout (assay type): cell-based, Saccharomyces cerevisiae
The nature of data set [1]: Relative abundance of BIAs in culture supernatants and cell extracts. Particulars: for fraction in which the BIA is mainly found (supernatant or cell extract): strains with heterologous enzymes. As for the experimental part:
Whole cell substrate feeding assays were used to test the function of each enzyme block individually and in combinations. To prepare the cells for the feeding assays, a colony of S. cerevisiae was inoculated in YNB-DO-GLU and incubated for 24 hours. Cultures were diluted to an OD600 of 0.8 into 6 ml of fresh YNB-DO-GLU and incubated for an additional 7 hours. Cells were harvested by centrifugation at 2000×g for 2 min. Supernatants were decanted and cells were suspended in 2 ml of Tris-EDTA (10 mM Tris-HCl, 1 mM EDTA, pH 8), containing 10 μM of one of the following feeding substrates: (R,S)-norlaudanosoline, (S)-reticuline, (S)-scoulerine or (S)-stylopine. Cells were incubated for 16 hours then harvested by centrifugation at 15000×g for 1 min. For BIA extraction from cells, the cell pellet was suspended in 500 μl methanol with ˜50 μl acid-washed glass beads and vortexed for 30 min. Cell extracts were clarified by centrifugation at 15000×g for 1 min and used directly for LC-MS analysis.
Detection of alkaloids in the sanguinarine biosynthetic pathway was performed by FT-MS using a 7T-LTQ FT ICR instrument (Thermo Scientific, Bremen, Germany). Alkaloids were separated by reverse phase HPLC (Perkin Elmer SERIES 200 Micropump, Norfolk, Conn.) using an Agilent Zorbax™ Rapid Resolution HT C18 2.1*30 mm, 1.8 micron column. Solvent A (0.1% acetic acid) and solvent B (100% acetonitrile) were used in a gradient elution to separate the metabolites of interest as follows: 0-1 min at 100% A, 1-6 min 0 to 95% B (linear gradient), 7-8 min 95% B, 8-8.2 min 100% A, followed by a 1 min equilibration at 100% A. Three microliters of either cell extract or supernatant fraction were loaded on the HPLC column run at a flow rate of 0.25 ml/min. Dilutions in methanol were performed to keep alkaloid concentrations within the range of standard curve values and avoid saturating FT signals. Following LC separation, metabolites were injected into the LTQ-FT-MS (ESI source in positive ion mode) using the following parameters: resolution, 100000; scanning range, 250 to 450 AMU; capillary voltage, 5 kV; source temperature, 350° C.; AGC target setting for full MS were set at 5×10^5 ions. Identification of alkaloids was done using retention time and exact mass (<2 ppm) of the monoisotopic mass of the protonated molecular ion [M+H]^+. LC-FT-MS data were processed using the freely available program Maven^56. When available authentic standards were used to confirm the identity of the BIA intermediates (using HPLC retention times and exact masses) and to quantify sanguinarine alkaloids. When unavailable, we assumed equal ionization efficiency between an intermediate and the closest available quantifiable alkaloid (m/z 302 and m/z=316: reticuline; cheilanthifoline: stylopine).
To confirm functional expression of enzymes, plasmids expressing each of the three blocks were individually transformed into S. cerevisiae and cultures of the strains were supplemented with either (R,S)-norlaudanosoline, (S)-reticuline, (S)-scoulerine or (S)-stylopine. Functional expression was verified by detection of the expected end products. As negative controls, yeast strains lacking enzyme blocks were incubated with each of the pathway intermediate to evaluate substrate recovery and to assess the relative proportion recovered in cellular extracts versus culture supernatants.

In data set [2] the test system is cheilanthifoline. The experiment in a line: CYP719 Ring A closure of cheilanthifoline to stylopine in GC1333. Here is the method: FIG. 11A-B: showing conversion of (S)-cheilanthifoline (FIG. 11A) or (S)-nandinine (FIG. 11B) to (S)-stylopine by purchased CYP719s. Plasmids harboring CYP719s were transformed into GC1333 containing an integrated PsCPR. Strains were incubated with the appropriate BIA overnight, and then total BIAs were extracted and total molar ratios were compared. PsSPSΔN was used as a control.
The 10 CYP719s with 95% activity on Ring A of scoulerine and the 10 CYP719s with activity on Ring B of scoulerine were tested for activity on cheilanthifoline and nandinine, respectively, in order to generate a branched stylopine synthesis pathway. […] CYP719s PsCFS and EX101, capable of converting >98% of scoulerine to cheilanthifoline and nandinine, respectively, were incubated with scoulerine. After 16 h, cells were pelleted and the supernatant fraction was collected. The supernatant was then applied to fresh yeast strains in order to supplement them with either TE containing nandinine or cheilanthifoline as necessary.

Data set [3] has as its system scoulerine. Briefly: CYP719s in GC1316 (integrated PsCPR and PsCFS) supplemented with scoulerine. To be noted: CYP719 expressed with PsCFS and PsCPR. The source says: Plasmids harboring CYP719s were transformed into either GC1333 containing an integrated PsCPR (FIG. 10A) or GC1316 containing an integrated PsCPR and an integrated PsCFS (FIG. 10B). Strain GC1333, harboring PsCPR integrated into the chromosome, was transformed with pBOT plasmids, with GFP removed, harboring individual CYP719s (CYP719 EX41-105). (See Tables 7-8 below presenting the nature and activity of these CYP719s).
Plasmids harboring individual CYP719s were transformed into strain GC1316, which harbored PsCPR and PsCFS integrated into the genome. Strains were supplemented with scoulerine and after 16 hours total BIAs were extracted and the molar ratio was compared (FIG. 10B). The four possible BIAs that could be extracted were scoulerine, the single Ring A product nandinine, the single Ring B product cheilanthifoline, and the double Ring A, Ring B product stylopine.

Entries after “also recorded” stand apart in the source; their conditions may differ. Where only a bound is given, the exact number is not on record here.

Consider `Oc1ccc(CC2NCCc3cc(O)c(O)cc32)cc1O` (racemic) [(R,S)-norlaudanosoline], for which the “share of fed BIA found in the cell extract after 16 hours of incubation” value in data set [1] (wild-type / negative control cells, 16 hours) is reported as 10%. The “share of fed BIA found in the cell extract, initially” value in data set [1] (wild-type cells, 0 hours) is recorded as 3%.
Consider `CN1Cc2c(ccc3c2OCO3)-c2ccc3cc4c(cc3c21)OCO4` [dihydrosanguinarine], for which, in data set [1] (16 hours), the “fraction in which the BIA is mainly found (supernatant or cell extract)” value (“fraction” below) is recorded as “mostly found in the cellular extract fraction”.
Turning to `COc1cc2c(cc1O)C1Cc3ccc4c(c3CN1CC2)OCO4` (stereo not drawn) [Cheilanthifoline, cheilanthifoline], in data set [1] (16 hours), the “fraction” value is “mainly found in the supernatant”.
On to `c1cc2c(c3c1C[C@H]1c4cc5c(cc4CCN1C3)OCO5)OCO2` [(S)-stylopine], for which the “fraction” value in data set [1] (16 hours) is recorded as “predominantly found in the cell extract; also recorded: mostly found in the cellular extract fraction”.
Take `C[N@@+]12CCc3cc4c(cc3[C@@H]1Cc1ccc3c(c1C2)OCO3)OCO4` [N-methylstylopine]: the “share of BIA found in the culture supernatant” value in data set [1] (Block 3 feeding assay, 16 hours) is given as “Approximately 55%”.

B1: EX101: CYP719 from Stylophorum diphyllum, SEQ ID NO: 380 (protein, listed as Stylophorum diphyllum)
chain: MESLIDFSNPAKMEELMSNPWIITAITLAVVIIMMTIFRRKSSSMKWPKGPKTLPIIGNMHLFGGTDLHVVLYNIAKVYGNVMTIWIGSWRPVIVISDIERAWEVLVNKSSDYSARDMPEITKLISSDWKTISTSDAGAFWTNLRKGLQNVALSPHNLASQFQFQESDIKKLIETIKEEGAVNNGIVKPLDHLKKAMVRLISRLIFGQDFDNDKYVEGMHHAIEELIRVSGYARLAEAFYYAKYLPSHKKAVRDVEEANRRVQKLVRPFLSLNPPTNTYLHFLRSQNYSEEVIIFAIFEAYLLGVDSTSSTTAWALAFLIREPNVQEKLYQELKNFTVKNGRDMLKVEDINKLPYLQATIKETMRMKPIAPLAIPHKACRDTSLMGSKIDKGTRVMVNIYALHHNEKIWKEPFKFMPERFLQTEGEVNGKAMEQSFLPFSAGMRICAGMELGKLQFNFALANLVNAFKWSCVADGVLPDMSDQLGFVLVMKTPLEARITPRC
Take B1: in data set [2], the “conversion of cheilanthifoline to stylopine” value (from here on “conversion of cheilanthifoline”) was greater than 98%.

B2: EX72: CYP719 from Nandina domestica, SEQ ID NO: 351 (protein, listed as Nandina domestica)
chain: MDPMSLWAAIAIVLVMTLLVLLQTRTKSLPSSSTQWPTGPKTLPIIGNLHQLEGDVFHVALAKLAKMHGDIMTIWIGSWRPVIVISDYDKAWEVLVNKSSDYSARDMPEITKIASAGWRTISLSSSGPFWHTLRKGLQNGPFGPLNVSAQILSQERDMRRMIRDMQEEADINGGIVKPLGHLKKATVGLLTRLIFGQNFDDDSFIESIHHETEELIRISGYARLAEAFSYAKYLPSHRRAVKESYECKHRVEELVKPLLSSNPPKNSYLNFLQSQDYPEEVIIFCIFEIYLLGVDSTSSTTTWALAFLIHEPAVQEKLYQEVKCITNGDGGLVKAGDLSKFQYLQAVMKETMRMKPIAPLAIPHTTSKDTTLMGTKVAKGTRIMVNLYALHHNPNIWSEPFKFMPERFLQEQFNGVGGDANVKAIEQSFLPFSAGMRICAGMDLGKLQFSFALANLVNAFKWTTVADGKFPDMNEELSFVLLMKTPLEARIVPRKP
With B2, the residual cheilanthifoline entry in data set [3] is recorded as “residual cheilanthifoline was detected”.

B3: EX50: CYP719 from Coptis japonica, Q948Y1.1, SEQ ID NO: 329 (protein, listed as Coptis japonica)
chain: MEMNPLLVCATVAIVFATTTIIRILFSSSSLPQMKWPSGPRKLPIIGNLHQLGDDVLHVALAKLAKVHGSVMTIWIGSWRPVIVISDIEKAWEVLVNKSADYGARDMPEITKIASASWHTISTSDAGSFWQNVRKGLQSGAMGPLNVAAQNQYQERDMKRLIKAMSDEAANNNGIVKPLDHIKKNTVRLLTRLIFGQAFDDNKFIESMHYEIEDIIRISGYARLAEAFYYAKYLPSHKKAEREAFLVKCRVEELVRPLLSSKPPTNSYLYFLLSQNFEEEVIIFCIFELYLLGVDSTSSTTTWALAYLIREQGAQEKLYQDIRMTLGDVDLVKIEDVNKLKYLQGVVKETMRMKPIAPLAIPHKTAKETTLMGTKVAKGTRIMVNLYALHHNQNIWPDPYKFMPERFLEGETGTAYNKAMEQSFLPFSAGMRICAGMDLGKLQFAFALANLVNAFKWSCVEEGKLPDMGEELSFVLLMKTPLEARIAGRNV
Consider B3, for which the residual cheilanthifoline entry in data set [3] is “residual cheilanthifoline was detected”. In data set [2], the “conversion of cheilanthifoline” value is on record as greater than 98%.

B4: EX96: CYP719 from Sanguinaria canadensis, SEQ ID NO: 375 (protein, listed as Sanguinaria canadensis)
chain: MEFEKIMMSNPWILAATTAVVFISITAIFFRRKSSSMEWPTGPKTLPIIGNMHLLGGTALHVVLHNFAKIYGNVMTIWIGSWRPVIVVSDIDRAWEVLVNKSSDYSARDMPEITKIISADWKTISTSDSGPFWTNLRKGLQNVALSPHNLAAQARFQERDISKMIETLKEEAALNNGIVKPLDHLKKATVRLISRLIYGQEFDNNKYVEDMHHAIEELIRVSGYARLAEAFYYAKYLPSHKKAVRDVEEANRRVKNLVRPFLSSNPPTNCYLHFLRTQNYPEEVIIFAIFEAYLLGVDSTSSTTAWALAFLVREPNVQEKLYQELKNFTTNNDRKMLKVEDINKLQYLQAVIKETMRMKPIAPLAIPHKACKETSLMGSKVDKGTRVMVNIYALHHNQKVWKEPYKFMPERFLETDNQDGNVGKAMEQSLLPFSAGMRICAGMELGKLQFTFSLANLVNAFKWSCVSDGVLPDMSDQLGFVLLMKNPLEARIVPRS
For the molecule B4, in data set [2], the “conversion of cheilanthifoline” value is greater than 98%.

B5: EX60: CYP719 from Eschscholzia californica, BAG75114.1, SEQ ID NO: 339 (protein, listed as Eschscholzia californica)
chain: MEEMKFLMMNNPWVLTATFTTLLISIFLFVTRKTSNTEWPNGPKTLPIIGNMHLLGGTKALQVILHNLAKVYGGVMTIWIGSWRPVIIVSDIERAWEVLVNKSSDYSARELPEIIKYNAANFRTIATCDSGPHWSNLRKGLQNVALSPHNLAAQFQFQEKDITKMIQNLEVEAKNNNGIVQPLDHLKKATIRLISRLIFGQDFDEDTYVEKLHHTIDELIRMSGYAQLAEAFYYARYLPNHKKAVNHAAKTKQIVTHLMRPFLSLNPPTNSYLHFLQSQNYDEELIIFSIFEVYLLGVDSTSSTTAWALAYLVREPNVQETLYQELDNFAKQNDRKILKVEDINKLQYLQAVTKETMRMKPIAPLAIPHKASRDTTLMGKKVEKGTKVMVNLHALHHNENVFNDPYKFMPERFLKSYQGAKAKAMEQSYLPFSAGMRICGGMEVGKLQFGFALANLAYAFKWSCAVNGVLPDMSDELGFVLFMKTPLEARIVRRN
In the case of B5, in data set [3], the residual cheilanthifoline result is given as “residual cheilanthifoline was detected”.
